Experiments:
Format in all cases: functional
RPMI-8226 = experiment: Cytotoxicity against Homo sapiens (human) RPMI8226 cells after 48 hr by sulforhodamine B assay; details: RPMI-8226, 48 h
SNB-75 = experiment: Cytotoxicity against Homo sapiens (human) SNB75 cells after 48 hr by sulforhodamine B assay; details: SNB-75, 48 h
SN12C = experiment: Cytotoxicity against Homo sapiens (human) SN12C cells after 48 hr by sulforhodamine B assay
PC-3 = experiment: Cytotoxicity against Homo sapiens (human) PC3 cells after 48 hr by sulforhodamine B assay; details: PC-3, 48 h
SF-268 [1] = experiment: Cytotoxicity against Homo sapiens (human) SF268 cells after 48 hr by sulforhodamine B assay; details: SF-268, 48 h
K562 = experiment: Cytotoxicity against Homo sapiens (human) K562 cells after 48 hr by sulforhodamine B assay; details: K562, 48 h
MDA-MB-231 = experiment: Cytotoxicity against Homo sapiens (human) MDA-MB-231 cells after 48 hr by sulforhodamine B assay; details: MDA-MB-231, 48 h
SNB-19 = experiment: Cytotoxicity against Homo sapiens (human) SNB19 cells after 48 hr by sulforhodamine B assay; details: SNB-19, 48 h
SF-539 = experiment: Cytotoxicity against Homo sapiens (human) SF539 cells after 48 hr by sulforhodamine B assay; details: SF-539, 48 h
SK-OV-3 = experiment: Cytotoxicity against Homo sapiens (human) SKOV3 cells after 48 hr by sulforhodamine B assay; details: SK-OV-3, 48 h
LOX IMVI = experiment: Cytotoxicity against Homo sapiens (human) LOXIMVI cells after 48 hr by sulforhodamine B assay
HT-29 = experiment: Cytotoxicity against Homo sapiens (human) HT-29 cells after 48 hr by sulforhodamine B assay; details: HT-29, 48 h
SF-268 [2] = experiment: Cytotoxicity against Homo sapiens (human) SF268 cells assessed as cell growth at 10^-4 M after 48 hr by […] assay; details: SF-268, 48 h, read-out: Activity
HOP-62 = experiment: Cytotoxicity against Homo sapiens (human) HOP62 cells after 48 hr by sulforhodamine B assay; details: HOP-62, 48 h
KM12 = experiment: Cytotoxicity against Homo sapiens (human) KM12 cells after 48 hr by sulforhodamine B assay; details: KM12, 48 h
UACC-62 = experiment: Cytotoxicity against Homo sapiens (human) UACC62 cells after 48 hr by sulforhodamine B assay; details: UACC-62, 48 h
OVCAR-4 = experiment: Cytotoxicity against Homo sapiens (human) OVCAR4 cells after 48 hr by sulforhodamine B assay; details: OVCAR-4, 48 h
RXF 393 = experiment: Cytotoxicity against Homo sapiens (human) RXF393 cells after 48 hr by sulforhodamine B assay; details: RXF 393, 48 h
COLO 205 = experiment: Cytotoxicity against Homo sapiens (human) COLO205 cells after 48 hr by sulforhodamine B assay; details: COLO 205, 48 h
NCI-H522 = experiment: Cytotoxicity against Homo sapiens (human) NCI-H522 cells after 48 hr by sulforhodamine B assay; details: NCI-H522, 48 h
OVCAR-8 = experiment: Cytotoxicity against Homo sapiens (human) OVCAR8 cells after 48 hr by sulforhodamine B assay; details: OVCAR-8, 48 h
BT-549 = experiment: Cytotoxicity against Homo sapiens (human) BT549 cells after 48 hr by sulforhodamine B assay; details: BT-549, 48 h
EKVX = experiment: Cytotoxicity against Homo sapiens (human) EKVX cells after 48 hr by sulforhodamine B assay
SK-MEL-5 = experiment: Cytotoxicity against Homo sapiens (human) SK-MEL-5 cells after 48 hr by sulforhodamine B assay; details: SK-MEL-5, 48 h
MCF7 = experiment: Cytotoxicity against Homo sapiens (human) MCF7 cells after 48 hr by sulforhodamine B assay; details: MCF7, 48 h
NCI-H460 = experiment: Cytotoxicity against Homo sapiens (human) NCI-H460 cells assessed as cell growth at 10^-4 M after 48 hr by Alamar blue assay; details: NCI-H460, 48 h, read-out: Activity
NCI-H23 = experiment: Cytotoxicity against Homo sapiens (human) NCI-H23 cells after 48 hr by sulforhodamine B assay; details: NCI-H23, 48 h
[3] = read-out: LC50 (the source's name)

SMILES: ClCc1cccc(Cn2cnc3ncnc(Cl)c32)c1
- GI50 (RPMI-8226): 13.8 µM
- TGI (RPMI-8226): 34.7 µM
- CC50 (RPMI-8226; [3]): 89.1 µM
- GI50 (SNB-75): 1.86 µM
- TGI (SNB-75): 3.54 µM
- CC50 (SNB-75; [3]): 7.94 µM
- GI50 (SN12C): 7.07 µM
- LC50 (50% lethal concentration) (SN12C): 6.16 µM
- TGI (SN12C): 20.4 µM
- GI50 (PC-3): 2.13 µM
- LC50 (concentration causing 50% cell kill) (PC-3): 63.1 µM
- TGI (PC-3): 5.37 µM
- GI50 (SF-268 [1]): 1.65 µM
- TGI (SF-268 [1]): 3.46 µM
- CC50 (SF-268 [1]; [3]): 47.9 µM
- GI50 (K562): 16.6 µM
- TGI (K562): 47.9 µM
- CC50 (K562; [3]): > 100 µM
- GI50 (MDA-MB-231): 1.73 µM
- LC50 (MDA-MB-231): 6.76 µM
- TGI (MDA-MB-231): 3.38 µM
- LC50 (SNB-19): 6.76 µM
- GI50 (SF-539): 19.9 µM
- TGI (SF-539): 36.3 µM
- GI50 (SK-OV-3): 10.7 µM
- LC50 (SK-OV-3): 8.12 µM
- TGI (SK-OV-3): 25.7 µM
- GI50 (LOX IMVI): 3.09 µM
- LC50 (LOX IMVI): 43.6 µM
- TGI (LOX IMVI): 14.1 µM
- GI50 (HT-29): 2.88 µM
- TGI (HT-29): > 100 µM
- CC50 (HT-29; [3]): 6.02 µM
- growth at 100 µM (SF-268 [2]): 0%
- GI50 (HOP-62): 2.18 µM
- TGI (HOP-62): 3.98 µM
- CC50 (HOP-62; [3]): 7.41 µM
- GI50 (KM12): 1.86 µM
- TGI (KM12): 3.31 µM
- CC50 (KM12; [3]): 67.6 µM
- GI50 (UACC-62): 2.18 µM
- LC50 (concentration causing 50% net cell kill) (UACC-62): 38.9 µM
- TGI (UACC-62): 5.37 µM
- GI50 (OVCAR-4): 4.16 µM
- LC50 (concentration killing 50% of cells) (OVCAR-4): 46.8 µM
- TGI (OVCAR-4): 15.8 µM
- GI50 (RXF 393): 2.04 µM
- TGI (RXF 393): 17.4 µM
- CC50 (RXF 393; [3]): 47.9 µM
- GI50 (COLO 205): 2.63 µM
- TGI (COLO 205): > 100 µM
- CC50 (COLO 205; [3]): 6.3 µM
- GI50 (NCI-H522): 6.16 µM
- TGI (NCI-H522): 24 µM
- CC50 (NCI-H522; [3]): > 100 µM
- GI50 (OVCAR-8): 3.09 µM
- LC50 (concentration killing 50% of cells) (OVCAR-8): 60.2 µM
- TGI (OVCAR-8): 14.8 µM
- GI50 (BT-549): 13.2 µM
- LC50 (50% lethal concentration) (BT-549): 63.1 µM
- TGI (BT-549): 28.8 µM
- GI50 (EKVX): 13.8 µM
- TGI (EKVX): 29.5 µM
- CC50 (EKVX; [3]): 64.6 µM
- GI50 (SK-MEL-5): 4.67 µM
- LC50 (SK-MEL-5): 45.7 µM
- TGI (SK-MEL-5): 18.2 µM
- GI50 (MCF7): 1.58 µM
- LC50 (concentration killing 50% of cells) (MCF7): 39 µM
- TGI (MCF7): 3.98 µM
- growth at 100 µM (NCI-H460): 0%
- GI50 (NCI-H23): 1.23 µM
- TGI (NCI-H23): 3.38 µM
- CC50 (NCI-H23; [3]): 5.88 µM
